Source: patent US10351594B2, “Process for preparing compounds having triple activities of thrombolysis, antithrombosis, and radical scavenging” (Shanghai Lumosa Therapeutics Co., Ltd., priority 2013, dated 2019)
“Also recorded” adds a separate entry of the source. Marks after values point to notes of the source that are not given here.

Legend:
[1] = tested on: formation of thrombus (rat arteriovenous bypass); assay: Antithrombotic activity via intravenous administration, rat arteriovenous bypass cannula with thread; format: in vivo, male SD rats; details: for wet weight of thrombus: n = 10
From the text: A cannula was composed of 3 segments. The middle segment has a length of 80 mm and an inner diameter of 3.5 mm. […] The pre-weighed, 60 mm in length thread was placed in the middle segment of the polyethylene tube. Both ends of the wider tube sheathed the un-narrowed ends of two polyethylene tubes respectively (0.5 mm of the thread was restrained by one of the segment to fix the thread). The cannula was filled with a heparin solution in normal saline (50 IU/kg) through the tip end by using an injector and was ready for use. 200-220 g male SD rats were anesthetized with 20% urethane solution (6 mL/kg, ip). Anesthetized rats were fixed in a supine position, and the left external jugular vein was separated and penetrated with a suture at the proximal and distal ends respectively, and the distal end was ligated. An incision was carefully made on the exposed left external jugular vein, and the tip end without thread-restraining of the bypass cannula prepared as described above was inserted into the proximal end of the open incision in the left external jugular vein. A precise amount of heparin in normal saline (50 IU/kg) was injected through the tip at the other end by using an injector. Then, the injector was replaced, and precise amount of drug was injected by the same way. At this moment, without removing the injector from the ethylene tube, the right common carotid artery was separated, and the proximal end was clipped by an artery clip. The right common carotid artery was penetrated with a suture at the proximal and distal ends respectively, and the distal end was ligated. An incision was carefully cut across the right common carotid artery near the artery clip. The injector was pulled out of the polyethylene tube through the tip, and the tip of the polyethylene tube was then inserted into the proximal end of the artery incision. Both ends of the bypass cannula were fixed to the artery or vein with #4 sutures. The artery clip was then removed to allow blood to flow from the artery to the vein through the bypass cannula. A rat arteriovenous bypass thrombolysis model was thus established. The process was timed from the beginning of circulation, the thread attached with thrombus was taken out from the bypass cannula after 15 minutes and accurately weighed. The difference in the mass of the thread before and after was determined as the wet weight of the thrombus, which was statistically analyzed and used to evaluate the in vivo antithrombotic activities of the compounds. The wet weight of the thrombus was expressed as average value and standard deviation (x±SD). The drug administration method is intravenous injection. The blank control was normal saline solution, and the dose was 1 mL/kg. The positive control was aspirin, and the dose was 9 mg/kg. The dose of compounds 5Aa-p of the present invention was 0.1 nmol/kg. The method was the same as in example 3. The drug administration method is intravenous injection. The blank control was normal saline solution, and the dose was 3 mL/kg. The positive control was aspirin, and the dose was 9 mg/kg.

stroke rats = assay: Therapeutic effect in stroke rats (microthrombus injected into the brain, treated at once): Zealonga score and TTC infarction volume; format: in vivo, SD male rats; details: for Neural function scores: Zealonga method, 24 hours after awake, n = 9; for Percentage of infarction volume: cerebral infarction, TTC, n = 7
Method: SD male rats (280-300 g) were randomly divided to UK positive control group at a dose of 20000 IU/kg, blank control group with normal saline solution, compound control group with PAK at a dose of 5 μmol/kg, and compound 5Ak group at a dose of 1 μmol/kg (high), 0.1 μmol/kg (medium), and 0.01 μmol/kg (low). A 10% chloral hydrate solution (400 mg/kg) was injected intraperitoneally into rats for anesthesia. […] The 10 μl blood drawn was placed in a 1 mL EP vial and kept at RT for 30 min to allow the coagulation of blood and then transferred into a −20° C. refrigerator for 1 hour to allow the formation of solid coagulation. 1 hour later, the blood clots were taken out, 1 mL normal saline was added therein, and then the blood clots were broken into relatively uniform microthrombus by a steel spatula. The microthrombus suspension was then transferred into a 1 mL injector for use. […] The common jugular vein was separated, and then injected with UK at the dose of 20000 IU/kg, normal saline solution, or compound 5Ak at the dose of 1 μmol/kg. The vein was ligated. 3 drops of penicillin was dropped on the wound. The wound was sewed, and animals were waited for awake.
24 hours after the rats were awake, the degree of damage in neural function was evaluated by the Zealonga method. […] The evaluation results were statistically analyzed and subjected to t-test.
After the rats were awake for 24 hours and assessed for their degree of damage in neural function by Zealonga method, they were anesthetized with urethane followed by immediate decapitation and removal of the brain. Brain tissues were kept in a −20° C. refrigerator for 2 hours, and coronal sections of about 2 mm were successively sliced from the prefrontal end for a total of 5 sections and then placed into a 2% TTC solution to incubate without light at 37° C. for 30 min. The color change in brain sections was observed: normal brain tissues were stained red by TTC, while ischemic brain tissues appeared in white. Photographs were taken by using a digital camera and processed with image statistics software, and the volume of infarction in brain tissues and the area of normal brain tissues in the coronal sections were calculated. The ratio of the cerebral infarction volume of each group was statistically calculated and subject to t-test.

[2] = tested on: formation of thrombus (rat arteriovenous bypass); assay: Antithrombotic activity via intravenous administration, rat arteriovenous bypass cannula with thread; format: in vivo, male SD rats; details: n = 10
[3] = NO radical scavenging activity (MGD/SNAP signal peak height); format: biochemical; details: n = 6
Method: 7.325 mg MGD (N-methyl-glucamine dithiocarbamate, Sigma) was dissolved in 1 mL of pure water to obtain 25 mM MGD solution. […] FeSO4.7H2O was dissolved in 1 mL of pure water to obtain 12.5 mM solution. […] SNAP (S-Nitroso-acetyl penicillamine) was dissolved in 1 mL of pure water to obtain 110 μM green mother liquid, which was diluted 100 folds to obtain 1 μM SNAP solution.
The first peak height of NO signal of 5 μL MGD solution+5 μL FeSO4.7H2O solution+5 μL SNAP solution+5 μL water was measured and repeated for 6 times. This peak height defined as the known peak height of NO signal. The first peak height of NO signal of 5 μL MGD solution+5 μL FeSO4.7H2O solution+5 μL SNAP solution+5 μL solution of one of the compounds 5Aa-p was measured and repeated for 6 times. This peak height defined as the residual peak height of the NO signal scavenged by one of the compounds 5Aa-p. Scavenging ratio=(known peak height of NO signal−residual peak height of NO signal of compounds 5Aa-p)/known peak height of NO signal

Compound: C[C@H](NC(=O)[C@@H]1CCCN1)C(=O)N[C@@H](CCCCN)C(=O)NCCCC[C@H](NC(=O)[C@@H]1Cc2cc(O)c(O)cc2C(C)(C)N1)C(=O)O [Compound 5Ak, 3S-6,7-dihydroxy-1,1-dimethyl-1,2,3,4-tetrahydro-isoquinoline-3-acyl-Lys(Pro-Ala-Lys)]
- wet weight of thrombus ([1]; Table 4, 5Ak 0.1 nmol/kg i.v.): 52.16 ± 2.02^a mg
- wet weight of thrombus ([1]; rat, 5Aa-p (i.v.) 0.1 nmol/kg, 15 minutes): 51.93 ± 2.74^a mg
- Antithrombotic activity, result in words ([1]; rat, intravenous, 5Ak 0.1 nmol/kg (dose-effect: 0.1, 0.01, 0.001 nmol/kg)): effectively inhibit the formation of thrombus; also recorded: obvious dose-effect relationship
- Therapeutic effect in stroke rats, result in words (stroke rats; 5Ak 1, 0.1, 0.01 μmol/kg): effectively prevent the brain ischemia rats from occurrence of dyskinesia and cerebral infarction; also recorded: dose dependent
- Neural function scores (stroke rats; 5Ak 0.01 μmol/kg): 2.30 ± 0.95^c
- Neural function scores (stroke rats; 5Ak 0.1 μmol/kg): 1.40 ± 1.07^b
- Neural function scores (stroke rats; 5Ak 1 μmol/kg): 1.10 ± 0.74^a
- Percentage of infarction volume (stroke rats; 5Ak 0.01 μmol/kg): 18.05 ± 5.77^c %
- Percentage of infarction volume (stroke rats; 5Ak 0.1 μmol/kg): 9.88 ± 2.52^b %
- Percentage of infarction volume (stroke rats; 5Ak 1 μmol/kg): 3.44 ± 1.99^a %
- wet weight of thrombus ([2]; Table 4, 5Ak 0.001 nmol/kg i.v.): 61.91 ± 3.27^c mg
- wet weight of thrombus ([2]; Table 4, 5Ak 0.01 nmol/kg i.v.): 57.34 ± 3.73^b mg
- EC50 [3]: 499 ± 89 µM
